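Assay format: 96-well plates, 48-hour exposure. The concentration for 50% growth inhibition is given as GI50.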 The source made the active and inactive calls. Cut-off read from the data, not from the text of the source: active = GI50 up to about 1.1 µM and inactive = higher.
Key:
Experiment in all cases: inhibition of tumour cell growth, NCI panel, 48 h
[1] = test system: RPMI-8226
[2] = test system: IGROV-1
[3] = test system: TK-10
[4] = test system: COLO 205
[5] = test system: CAKI-1
[6] = test system: A498
[7] = test system: UACC-257
[8] = test system: HOP-92
[9] = test system: K562
[10] = test system: NCI-H226
[11] = test system: MOLT-4
[12] = test system: XF498
[13] = test system: OVCAR-5
[14] = test system: UO-31
[15] = test system: NCI-H23
[16] = test system: SF-539
[17] = test system: SW-620
[18] = test system: RXF 393
[19] = test system: KM12
[20] = test system: NCI-H522
[21] = test system: SF-268
[22] = test system: SNB-19
[23] = test system: NCI-H460
[24] = test system: EKVX
[25] = test system: LXFL 529
[26] = test system: Malme-3M
[27] = test system: OVCAR-8
[28] = test system: HT-29
[29] = test system: HL-60
[30] = test system: HCT-116
[31] = test system: 786-0
[32] = test system: OVCAR-3
[33] = test system: M14
[34] = test system: UACC-62
[35] = test system: SNB-78
[36] = test system: DMS-273
[37] = test system: U-251
[38] = test system: LOX IMVI
[39] = test system: HOP-62
[40] = test system: SK-MEL-28
[41] = test system: OVCAR-4
[42] = test system: M19-MEL
[43] = test system: A549
[44] = test system: HCC 2998
[45] = test system: HCT-15
[46] = test system: CCRF-CEM
[47] = test system: SK-MEL-2
[48] = test system: KM-20L2
[49] = test system: SK-OV-3
[50] = test system: SK-MEL-5
[51] = test system: SNB-75
[52] = test system: DMS-114
[53] = test system: DLD-1
[54] = test system: HOP-18
[55] = test system: ACHN
[56] = test system: SF-295
[57] = test system: SN12C
[58] = test system: SR
[59] = test system: PC-3
[60] = test system: MDA-MB-435
[61] = test system: DU-145
[62] = test system: T47D
[63] = test system: MDA-N
[64] = test system: MDA-MB-231
[65] = test system: Hs-578T
[66] = test system: BT-549
[67] = test system: NCI/ADR-RES
[68] = test system: MCF7

## COC1=CC(=O)C2C(C1=O)C(c1ccc(Cl)cc1)[C@@H]2C (stereo not given in full)
[1]
  GI50: 39.7 µM (inactive)
[2]
  GI50: 55.3 µM (inactive)
[3]
  GI50: 38.7 µM (inactive)
[4]
  GI50: 35 µM (inactive)
[5]
  GI50: 37.8 µM (inactive)
[6]
  GI50: 58.9 µM (inactive)
[7]
  GI50: 20.6 µM (inactive)
[8]
  GI50: 24.5 µM (inactive)
[9]
  GI50: 28.3 µM (inactive)
[10]
  GI50: 22.1 µM (inactive)
[11]
  GI50: 31.6 µM (inactive)
[12]
  GI50: 18.3 µM (inactive)
[13]
  GI50: 30.3 µM (inactive)
[14]
  GI50: 19.7 µM (inactive)
[15]
  GI50: 28.6 µM (inactive)
[16]
  GI50: 22.8 µM (inactive)
[17]
  GI50: 27.4 µM (inactive)
[18]
  GI50: 24.1 µM (inactive)
[19]
  GI50: 47.2 µM (inactive)
[20]
  GI50: 15.2 µM (inactive)
[21]
  GI50: 33 µM (inactive)
[22]
  GI50: 7.05 µM (inactive)
[23]
  GI50: 30.1 µM (inactive)
[24]
  GI50: 26.3 µM (inactive)
[25]
  GI50: 17.5 µM (inactive)
[26]
  GI50: 23 µM (inactive)
[27]
  GI50: 20.6 µM (inactive)
[28]
  GI50: > 100 µM (inactive)
[29]
  GI50: 22.2 µM (inactive)
[30]
  GI50: 15.7 µM (inactive)
[31]
  GI50: 24.4 µM (inactive)
[32]
  GI50: 34.6 µM (inactive)
[33]
  GI50: 25.7 µM (inactive)
[34]
  GI50: 24.7 µM (inactive)
[35]
  GI50: 36.8 µM (inactive)
[36]
  GI50: 41 µM (inactive)
[37]
  GI50: 25.2 µM (inactive)
[38]
  GI50: 22.4 µM (inactive)
[39]
  GI50: 39.1 µM (inactive)
[40]
  GI50: 28.9 µM (inactive)
[41]
  GI50: 42.4 µM (inactive)
[42]
  GI50: 33.7 µM (inactive)
[43]
  GI50: 34 µM (inactive)
[44]
  GI50: 45.5 µM (inactive)
[45]
  GI50: 17.1 µM
[46]
  GI50: 29.4 µM (inactive)
[47]
  GI50: 37.4 µM (inactive)
[48]
  GI50: 51.1 µM (inactive)
[49]
  GI50: > 100 µM (inactive)
[50]
  GI50: 19.5 µM (inactive)
[51]
  GI50: 17.4 µM (inactive)
[52]
  GI50: 21.5 µM (inactive)
[53]
  GI50: 25.9 µM (inactive)
[54]
  GI50: 12.2 µM (inactive)
[55]
  GI50: 17.3 µM (inactive)
[56]
  GI50: 93.1 µM (inactive)

## N#C/C(=C/c1cccc(Oc2ccccc2)c1)c1ccccc1
[1]
  GI50: > 100 µM (inactive)
[2]
  GI50: > 100 µM (inactive)
[3]
  GI50: > 100 µM (inactive)
[57]
  GI50: > 100 µM (inactive)
[4]
  GI50: 55 µM (inactive)
[5]
  GI50: > 100 µM (inactive)
[6]
  GI50: > 100 µM (inactive)
[7]
  GI50: > 100 µM (inactive)
[8]
  GI50: 93.8 µM (inactive)
[9]
  GI50: 36.7 µM (inactive)
[10]
  GI50: > 100 µM (inactive)
[11]
  GI50: > 100 µM (inactive)
[12]
  GI50: > 100 µM (inactive)
[13]
  GI50: 34.6 µM (inactive)
[14]
  GI50: > 100 µM (inactive)
[15]
  GI50: > 100 µM (inactive)
[16]
  GI50: > 100 µM (inactive)
[17]
  GI50: > 100 µM (inactive)
[19]
  GI50: > 100 µM (inactive)
[20]
  GI50: > 100 µM (inactive)
[21]
  GI50: > 100 µM (inactive)
[23]
  GI50: > 100 µM (inactive)
[24]
  GI50: > 100 µM (inactive)
[25]
  GI50: > 100 µM (inactive)
[26]
  GI50: > 100 µM (inactive)
[27]
  GI50: > 100 µM (inactive)
[28]
  GI50: > 100 µM (inactive)
[29]
  GI50: 64.7 µM (inactive)
[30]
  GI50: > 100 µM (inactive)
[31]
  GI50: > 100 µM (inactive)
[33]
  GI50: > 100 µM (inactive)
[34]
  GI50: > 100 µM (inactive)
[35]
  GI50: > 100 µM (inactive)
[37]
  GI50: > 100 µM (inactive)
[38]
  GI50: > 100 µM (inactive)
[40]
  GI50: > 100 µM (inactive)
[41]
  GI50: > 100 µM (inactive)
[42]
  GI50: > 100 µM (inactive)
[43]
  GI50: > 100 µM (inactive)
[44]
  GI50: > 100 µM (inactive)
[45]
  GI50: > 100 µM
[46]
  GI50: > 100 µM (inactive)
[47]
  GI50: 66.5 µM (inactive)
[49]
  GI50: > 100 µM (inactive)
[50]
  GI50: > 100 µM (inactive)
[51]
  GI50: > 100 µM (inactive)
[52]
  GI50: 51.8 µM (inactive)
[53]
  GI50: > 100 µM (inactive)
[54]
  GI50: > 100 µM (inactive)
[58]
  GI50: > 100 µM (inactive)
[55]
  GI50: > 100 µM (inactive)
[56]
  GI50: 4.95 µM (inactive)

## CC(=O)NCCCCCCNC(C)=O [HEXAMETHYLENEBISACETAMIDE]
[1]
  GI50: 4650 µM (inactive)
[59]
  GI50: 8180 µM (inactive)
[2]
  GI50: 9180 µM (inactive)
[3]
  GI50: 4300 µM (inactive)
[57]
  GI50: 7500 µM (inactive)
[4]
  GI50: 5380 µM (inactive)
[5]
  GI50: 1790 µM (inactive)
[6]
  GI50: 5790 µM (inactive)
[7]
  GI50: 7080 µM (inactive)
[8]
  GI50: 3560 µM (inactive)
[9]
  GI50: 5740 µM (inactive)
[10]
  GI50: 6810 µM (inactive)
[60]
  GI50: 4010 µM (inactive)
[61]
  GI50: > 8830 µM (inactive)
[11]
  GI50: 7280 µM (inactive)
[62]
  GI50: > 5680 µM (inactive)
[12]
  GI50: 3180 µM (inactive)
[13]
  GI50: 8240 µM (inactive)
[14]
  GI50: 5250 µM (inactive)
[15]
  GI50: 9160 µM (inactive)
[16]
  GI50: 6070 µM (inactive)
[17]
  GI50: > 3570 µM (inactive)
[18]
  GI50: 9860 µM (inactive)
[63]
  GI50: 7570 µM (inactive)
[19]
  GI50: 8450 µM (inactive)
[20]
  GI50: 3230 µM (inactive)
[21]
  GI50: 8910 µM (inactive)
[22]
  GI50: 8510 µM (inactive)
[23]
  GI50: 4810 µM (inactive)
[24]
  GI50: 7280 µM (inactive)
[26]
  GI50: 3160 µM (inactive)
[27]
  GI50: 7620 µM (inactive)
[28]
  GI50: 4840 µM (inactive)
[29]
  GI50: 3450 µM (inactive)
[30]
  GI50: 8470 µM (inactive)
[64]
  GI50: 4180 µM (inactive)
[31]
  GI50: > 10000 µM (inactive)
[65]
  GI50: 5790 µM (inactive)
[32]
  GI50: 8180 µM (inactive)
[66]
  GI50: > 10000 µM (inactive)
[33]
  GI50: 6040 µM (inactive)
[34]
  GI50: 4050 µM (inactive)
[67]
  GI50: 7410 µM (inactive)
[35]
  GI50: 6590 µM (inactive)
[36]
  GI50: 3600 µM (inactive)
[37]
  GI50: 7830 µM (inactive)
[68]
  GI50: 3480 µM (inactive)
[38]
  GI50: 4680 µM (inactive)
[39]
  GI50: 6590 µM (inactive)
[40]
  GI50: 6980 µM (inactive)
[41]
  GI50: 6550 µM (inactive)
[42]
  GI50: 5750 µM (inactive)
[43]
  GI50: 2290 µM (inactive)
[44]
  GI50: 4290 µM (inactive)
[45]
  GI50: 5530 µM
[46]
  GI50: 7670 µM (inactive)
[47]
  GI50: 6590 µM (inactive)
[48]
  GI50: 5220 µM (inactive)
[49]
  GI50: 8930 µM (inactive)
[50]
  GI50: 6700 µM (inactive)
[51]
  GI50: 2840 µM (inactive)
[52]
  GI50: 3860 µM (inactive)
[53]
  GI50: 8240 µM (inactive)
[54]
  GI50: 7530 µM (inactive)
[58]
  GI50: > 8530 µM (inactive)
[55]
  GI50: > 10000 µM (inactive)
[56]
  GI50: 6370 µM (inactive)

Source: ChEMBL document CHEMBL1201862, “PubChem BioAssay data set” (2004)
